Experimental data from PMC7290210 (Infection, Genetics and Evolution, 2020).

Legend:
[1] = molecular target: human ACE2 (Homo sapiens, UniProt Q9BYF1); assay: Surface plasmon resonance assay, human ACE2 chip; format: binding; conditions: SPR, human ACE2 extracellular domain, pH 4.5, 25 °C
[2] = molecular target: SARS-CoV-2 S1 + S2 ECD (Severe acute respiratory syndrome coronavirus 2, UniProt P0DTC2); assay: biochemical; format: binding
[3] = molecular target: SARS-CoV2 S2 ECD (Severe acute respiratory syndrome coronavirus 2, UniProt P0DTC2); assay: biochemical; format: binding, SARS-CoV-2
[4] = molecular target: S-RBD-ACE2 protein complex (Homo sapiens, UniProt Q9BYF1); format: binding, SARS-CoV-2
S-RBD-ACE2 protein complex, sequence (Q9BYF1 18-740, one chain of several): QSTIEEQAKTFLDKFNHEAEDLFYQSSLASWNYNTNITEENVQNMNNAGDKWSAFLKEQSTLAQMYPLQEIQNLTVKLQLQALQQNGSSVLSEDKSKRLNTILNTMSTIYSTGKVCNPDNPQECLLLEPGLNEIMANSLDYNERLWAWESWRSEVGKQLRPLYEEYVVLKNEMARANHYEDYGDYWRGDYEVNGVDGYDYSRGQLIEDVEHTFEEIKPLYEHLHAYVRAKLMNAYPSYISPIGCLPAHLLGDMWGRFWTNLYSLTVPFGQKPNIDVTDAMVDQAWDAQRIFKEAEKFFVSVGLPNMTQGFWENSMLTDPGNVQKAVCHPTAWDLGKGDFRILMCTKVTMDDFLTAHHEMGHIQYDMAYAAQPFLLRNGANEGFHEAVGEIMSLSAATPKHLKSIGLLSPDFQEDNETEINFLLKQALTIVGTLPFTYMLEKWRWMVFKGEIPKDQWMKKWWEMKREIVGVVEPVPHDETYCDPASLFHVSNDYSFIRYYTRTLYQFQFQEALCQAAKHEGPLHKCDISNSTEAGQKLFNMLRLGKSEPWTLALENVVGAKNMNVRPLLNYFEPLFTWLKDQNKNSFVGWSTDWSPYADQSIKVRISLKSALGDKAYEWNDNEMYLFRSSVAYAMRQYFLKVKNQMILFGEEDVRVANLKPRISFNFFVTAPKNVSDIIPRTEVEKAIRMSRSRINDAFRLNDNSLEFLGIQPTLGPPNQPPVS

human ACE2, sequence (Q9BYF1 18-740): as the sequence (Q9BYF1 18-740, one chain of several) above

Compound | Kd [1] | Tm Mean of RBD-ACE2 complex [4] | further results
CC1(C)[C@@H](O[C@H]2O[C@H](C(=O)O)[C@@H](O)[C@H](O)[C@H]2O[C@@H]2O[C@H](C(=O)O)[C@@H](O)[C@H](O)[C@H]2O)CC[C@]2(C)[C@H]3C(=O)C=C4[C@@H]5C[C@@](C)(C(=O)O)CC[C@]5(C)CC[C@@]4(C)[C@]3(C)CC[C@@H]12 [Glycyrrhizate, glycyrrhizate] | 4900 µM |  | Rmax ([1]; listed as glycyrrhizate): 557.8 RU
CC1=NN(c2ccc(C)c(C)c2)C(=O)/C1=N\Nc1cccc(-c2cccc(C(=O)O)c2)c1O [Eltrombopag] | 0.828 µM | 49.9 °C | Kd [2]: 2.01 µM; Kd ([3]; KD): 2.17 µM; Rmax [1]: 21.95 RU
Glycyrrhizic acid |  |  | Rmax ([3]; pH 5.5): 623.7 RU
[Cl-].[Cl-].[Mg+2] [MgCl2] |  | 51.6 °C | 
[Ca+2].[Cl-].[Cl-] [CaCl2] |  | 51.6 °C | 
CC1(C)[C@@H](O[C@H]2O[C@H](C(=O)O)[C@@H](O)[C@H](O)[C@H]2O[C@@H]2O[C@H](C(=O)O)[C@@H](O)[C@H](O)[C@H]2O)CC[C@]2(C)[C@H]3C(=O)C=C4[C@@H]5C[C@@](C)(C(=O)O)CC[C@]5(C)CC[C@@]4(C)[C@]3(C)CC[C@@H]12 [Glycyrrhizin, glycyrrhizin] | 1800 µM |  | Rmax ([1]; listed as glycyrrhizin): 499.4 RU
